Values quoted from earlier work, collected in patent publication US20160128986A1, “METHODS AND COMPOSITIONS RELATED TO THE USE OF LOW HLB SURFACTANTS IN THE PRODUCTION OF SYNTHETIC NANOCARRIERS COMPRISING A RAPALOG” (Selecta Biosciences, Inc., priority 2014, published 2016).

Details: publicly available information

| HLB of Surfactant | Molecule |
| --- | --- |
| 4 | Polyethylene glycol oleyl ether [Brij 93] |
| 4.3 | Sorbitan monooleate [SPAN 80] |
| 12 | CCCCCCCCO[C@@H]1O[C@H](CO)[C@@H](O)[C@H](O)[C@H]1O [octyl β-D-glucopyranoside, Octyl β-D-glucopyranoside] |
| 6.7 | Sorbitan monopalmitate [SPAN 40] |
| 15 | Polysorbate 80 |

The remaining lines, values behind:

| Molecule | HLB of Surfactant |
| --- | --- |
| Sorbitan stearate [SPAN 60] | 4.7 |
| CCCCCCCCCCCCCCCC(=O)O [Palmitic Acid] | 3.2 |
| Polyethylene glycol hexadecyl ether [Brij 52] | 5 |
| Sorbitan monolaurate [SPAN 20] | 8.6 |
